Reference: patent publication US20120232290A1, “REACTIVITY OF HYDROXYMETHYLGLUTARYL COENZYME A (HMG-COA) REDUCTASE INHIBITORS CONTAINING CONJUGATED DIENES WITH PHENOLIC ANTIOXIDANTS IN THE SOLID-STATE” (priority 2007, published 2012)
Like-named read-outs stand apart in the source and are kept apart here.

Tests used:
[1] = Stability of isolated simvastatin hydroperoxide degradates on storage; format: physicochemical; conditions: stored under freezer conditions
[2] = format: physicochemical; conditions: for hydroxy and hydroperoxide products formed: reactions with antioxidants, determined by LC/MS; for decrease in concentration of statin / change in concentration of statin: solid-state, 50° C., 9 days
Description: Solvents used varied due to the solubility of the statin. […] The beaker was placed in a dark oven maintained at 50° C. overnight. The beaker was removed from the oven, allowed to cool, then 20 mL of solvent were added and the beaker swirled to redissolve the solid. The beaker was returned to the oven and heated an additional 24 h at 50° C. This dissolution and heating process was repeated daily for the duration of the specific experiment. […] Reversed-phase HPLC analyses were performed using an Agilent 1100 HPLC with an Agilent diode array detector acquiring data in the range of 205-400 nm. This LC/MS-compatible method utilized a Discovery RP Amide C16 250 mm×4.6 mm, 5 μm column (Supelco Inc, Bellefonte Pa.). Mobile phase A was aqueous 0.1% (v/v) formic acid and mobile phase B was acetonitrile containing 0.1% (v/v) formic acid. Mobile phase flow rate was 1 mL/min and the column was maintained at 30° C. The elution sequence was isocratic 60% A:40% B for 0.5 min; a gradient of 60% A:40% B to 50% A:50% B over 1.5 min then hold for 28 min; 50% A:50% B to 20% A:80% B over 1.0 min then hold for 3 min; 20% A:80% B to 100% B over 1.0 min then hold for 4 min. LC/MS analyses were performed using a Waters Acquity UPLC with PDA and a Micro Quattro MS with infusion pump with the LC method described above.

[3] = aqueous solution, radical initiator; cited from earlier work

Compound	decomposition of isolate on storage [1]	degradation of statin [2]	hydroxy and hydroperoxide products formed [2]	change in concentration of statin ([2]; with BHA)	change in concentration of statin ([2]; with α-tocopherol)	other results
CCC(C)(C)C(=O)OC1C[C@@](C)(OO)C=C2C=CC(C)C(CCC3CC(O)CC(=O)O3)C21 (stereo partly drawn) [3(R)-hydroperoxysimvastatin]	slowly decomposed to numerous products over a few days	–	–	–	–	–
CCC(C)(C)C(=O)OC1C[C@](C)(OO)C=C2C=CC(C)C(CCC3CC(O)CC(=O)O3)C21 (stereo partly drawn) [3(S)-hydroperoxysimvastatin]	slowly decomposed to numerous products over a few days	–	–	–	–	–
CC[C@H](C)C(=O)O[C@H]1C[C@@H](C)C=C2C=C[C@H](C)[C@H](CC[C@@H]3C[C@@H](O)CC(=O)O3)[C@H]21 [lovastatin]	–	Minimal degradation	minimal quantities of hydroxy and hydroperoxide products	remained essentially unchanged	remained essentially unchanged	decrease in concentration of statin ([2]; incubated alone): about 12%; decrease in concentration of statin ([2]; with propyl gallate): about 12%; rates of oxidation (lovastatin versus simvastatin) [3]: nearly identical rates of oxidation
CC[C@H](C)C(=O)O[C@H]1CCC=C2C=C[C@H](C)[C@H](CC[C@@H]3C[C@@H](O)CC(=O)O3)[C@H]21 [mevastatin]	–	Minimal degradation	minimal quantities of hydroxy and hydroperoxide products	no decrease	no decrease	change in concentration of statin ([2]; incubated alone): no decrease; change in concentration of statin ([2]; with propyl gallate): no decrease
CC[C@H](C)C(=O)O[C@H]1C[C@H](O)C=C2C=C[C@H](C)[C@H](CC[C@@H](O)C[C@@H](O)CC(=O)O)[C@H]21 [pravastatin]	–	Minimal degradation	–	–	–	–
